Assays:
Assay type in all cases: cell-based, human
[1] = test system: phospho-ERK (MAPK) in the presence of VEGF; assay: Immunofluorescence assay phospho-ERK + VEGF; settings: FIG. 3G, compared with the vehicle alone
Method: Immunofluorescence was performed on drug-treated cells to assess the post-translational modification status of proteins involved in the pathways of interest. We constructed assays designed to measure the phosphorylation status of key signaling proteins in the absence and presence of a growth factor stimulus. A drug capable of blocking or inhibiting the pathway leading to the signaling protein would in principle cause a decrease in the phosphorylation of that signaling protein in response to the selected growth factor. Such a change in phosphorylation status could be measured by a decrease in fluorescence in the presence of the drug. […]
HEK293T cells were seeded at a density of 7,500/well in poly-D-lys coated, blackwalled 96 well plate (Greiner). […] Phosphorylated ERK was detected by incubating the fixed cells with rabbit phospho-ERK (T202/Y204)-specific antibodies (Cell Signaling Technologies) followed by Alexa488 conjugated goat anti-rabbit antibody (Molecular Probes). […] Fluorescence images were acquired on a Discovery-1 imaging station (Molecular Devices) as described above.
Background fluorescence due to nonspecific binding by the secondary antibody was established with the use of cells that were incubated with BSA/PBS and without primary antibodies. […]

[2] = test system: HSP90:CDC37; assay: Protein-fragment complementation assay Hsp90:CDC37
Text: (§1) To construct dynamic assays for protein-protein complexes, we used a protein-fragment complementation assay strategy (PCAs) in intact human cells. (A variety of other suitable assays, and reporter options, are described in detail below.) The principle of PCA is that complementary polypeptide fragments (F[1] and F[2]) of a reporter protein or enzyme will fold into an active form only if fused to two proteins which interact and bring the complementary fragments of the reporter protein into proximity. Reconstitution of the fragments of the reporter protein generates a fluorescent signal that can be quantified in intact cells, and the amount of the signal is proportional to the amount of the protein-protein complex used in constructing the assay. Given a suitable reporter type, the subcellular location of the complex can also be measured.
(§2) Reporter fragments for PCA were generated by oligonucleotide synthesis (Blue Heron Biotechnology, Bothell, Wash.), starting with the sequence of yellow fluorescent protein (YFP). First, oligonucleotides coding for polypeptide fragments YFP[1]and YFP[2] […] Next, PCR mutagenesis was used to generate the mutant fragments IFP[1] and IFP[2]. The IFP[1] fragment corresponds to YFP[1]-(F46L, F64L, M153T) and the IFP[2] fragment corresponds to YFP[2]-(V163A, S175G). […]

[3] = test system: Cofilin:LIMK2; assay: Protein-fragment complementation assay Cofilin:LIMK2; settings: hit in Cofilin/LIMK2 assay; drugs screened at 10 micromolar
Text: as §1, §2

Question: Which results are given for `O=C(Nc1ccc([N+](=O)[O-])cc1Cl)c1cc(Cl)ccc1O` [Niclosamide]?
Answer: level of phospho-ERK (intensity of the fluorescence) [1]: decrease in the level of phospho-ERK; level of HSP90:CDC37 complexes (intensity of the fluorescence) ([2]; FIG. 3D): decrease in the level; Assay activity ([2]; hit in HSP90/CDC37 assay, drugs screened at 10 micromolar): HSP90/CDC37,; Assay activity [3]: Cofilin/LIMK2,

From US20060094059A1, “Methods for identifying new drug leads and new therapeutic uses for known drugs” (Odyssey Thera, Inc., priority 2004, published 2006)
